For series [1], the system named is ischaemic skeletal muscle. Kind of series: pO2 measurement in ischaemic skeletal muscle (m. gastrocnemius, femoral artery ligated), Pt-needle electrodes. Type of series: in vivo, Cat. On the procedure:
(§1) Cats of either sex were anaesthetized with urethane/chloralose (120/60 mg/kg i.p. In the course of the experiments, pentobarbital was injected intravenously (V. antebrachii ceph.) via a plastic tube. The intraduodenal (i.d.) application of compound weas conducted by means of a plastic catheter, which was inserted into the duodenum.
The reference electrode, and Ag/AgCl system was sputtered on the glass mantle of the cathode, or it was a separate electrode. The cathode was coated with a polystyrol and a collodium membrane. A constant voltage supply provided a polarizing voltage between 600 and 800 mV. The reducing current was measured by a nano-ampere amplifying meter. The- cathode was inserted in the tissue by means of a motor-driven micromanipulator.
A p02― electrode was inserted in the muscle tissue (m. gastrocnemius) of both hindlegs of an anaesthetized cat. After recording the p02 of the normal perfused muscle, the blood flow to one measuring site was restricted by ligating the femoral artery. […] After having reached a constant level of p02, the vehicle was given, followed by the test substance.
The mean value and the standard deviation were calculated, in order to check the significance of the effect.

In another series the test system is skeletal muscle. Kind of series: pO2 measurement in the control (non-ligated) hind limb muscle. The note with it: individual cats. Type of series: in vivo, Cat.
Series [2] relates to ischaemic skeletal muscle. Kind of series: Skeletal muscle contractility with restricted femoral blood flow. The series is classed as in vivo, Cat. On the procedure:
as §1
Cats of either sex were anaesthetized as for p02 measurement. After dissection of the skin of the calf muscles, the sciatic nerve was cut about 3 cm proximal to the knee. The tendon of the calf muscles was cut and connected with an isometric force transducer (SWEMA, SG 3). In order to maintain constant differences and a resting tension of 100 p, the hind limb was fixed at the tibia by means of a clamp. Direct stimulation of the muscles consisted of square wave pulses of a 4 msec duration at a frequency of 2 Hz and at a voltage of 50 V. In order to keep the muscles wet and at a normal temperature, the muscles were continuously superfused by means of a NaCI-solution (0.9%, 38°C). Femoral blood flow was restricted by a graded occlusion of the artery leading to a reduction of contractility by ca. 30%. After having reached a constant level of the contraction force, the vehicle (NaCI and Methocel®, respectively) was injected, followed by the test substance.

A short description of series [3]: Blood pressure changes during the contractility experiment. Type of series: in vivo, Cat.
Series [4] can be described thus: Acute oral toxicity (LD50). The note with it: mouse, in vivo; mice, per oral.
A short description of series [5]: Solubility in aqueous media. The series is classed as physicochemical.

“And” between values parts separate entries of the source, which are not always exact repeats. Equal values may be shown once.

For the molecule `CCCCn1c(=O)c2c(ncn2CC(C)=O)n(CCCC)c1=O` [Compound A, 1,3-di-n-butyl-7-(2-oxopropyl)xanthine], the “effect of Compound A 125 μg/kg i.v. ΔpO2 (Torr)” value in series [1] (hind limb art. lig., 125 μg/kg i.v., individual cats) was 5.6 (p≤0.01) Torr and 6.2 (p≤0.01) Torr and 7.3 (p≤0.01) Torr and 5.2 (p≤0.01) Torr and 27.1 (p≤0.01) Torr and 11.2 (p≤0.01) Torr; in the series with skeletal muscle (125 μg/kg i.v.), 19.3 (p≤0.01) Torr and 3.4 (p≤0.01) Torr and 13.2 (p≤0.01) Torr and 3.8 (p≤0.01) Torr and 3.5 (p≤0.01) Torr. For the same molecule, the “pO2 (mmHg) (increase)” value in series [1] (i.d., 50 µg/kg) is listed as 4 (50 µg) mmHg; in series [1] (i.v., 125 µg/kg), 10 (125 µg) mmHg. The “t (min), time interval to reach initial values, muscle contract.” value in series [2] (50 µg/kg i.v.) is on record as above 60 min; in series [2] (125 µg/kg i.v.), above 60 min; in series [2] (313 µg/kg i.v., n = 1), above 60 min. Also, the Δ muscle contract. entry in series [2] (313 µg/kg i.v., n = 1) is “+25.0 n = 1 percentage of initial values”. Further, the “contractility (% initial value)” value was 32 (125 µg) % initial value in series [2] (i.d., 125 µg/kg) and 36 (50 µg) % initial value in series [2] (i.v., 50 µg/kg). Also, the “t (min), time interval to reach initial values, initial phase BP decrease” value is on record as 2 min in series [3] (50 µg/kg i.v.); 3 min in series [3] (125 µg/kg i.v.); 2 min in series [3] (313 µg/kg i.v., n = 1). Also, the “t (min), time interval to reach initial values, second phase BP increase” value in series [3] (50 µg/kg i.v.) came out at 33 min; in series [3] (125 µg/kg i.v.), 32 min; in series [3] (313 µg/kg i.v., n = 1) it was 6 min. Besides, the “Δ second phase BP increase X̄ ± S” value in series [3] (125 µg/kg i.v.) is recorded as “+10.8 ± 8.3 percentage of initial values”. The “Δ initial phase BP decrease” value in series [3] (313 µg/kg i.v., n = 1) is listed as −25.0 n = 1 percentage of initial values. Also, the “Δ second phase BP increase” value in series [3] (313 µg/kg i.v., n = 1) was “+15.0 n = 1 percentage of initial values”. This molecule showed an LD50 in series [4] above 1000 mg/kg. The “solubility in aqueous media” value in series [5] was “only sparingly soluble”.
For the molecule `CC(=O)CCCCn1c(=O)c2c(ncn2C)n(C)c1=O` [Compound B, pentoxyphylline], the “effect of Compound B 5 mg/kg i.v. ΔpO2 (Torr)” value in series [1] (hind limb art. lig., 5 mg/kg i.v., individual cats) was 1.3 (p≤0.01) Torr and 1.6 (p≤0.01) Torr and 4.9 (p≤0.01) Torr and 7.3 (p≤0.01) Torr. For the same molecule, the “effect of Compound B in relation to Compound A (%)” value is 22.9% and 26.6% and 0% (2×) and 17.9% and 65.6% in series [1] (hind limb art. lig., B 5 mg/kg i.v. vs A 125 μg/kg i.v., individual cats); 74.3% and 0% (3×) and 27% in the series on skeletal muscle (B 5 mg/kg i.v. vs A 125 μg/kg i.v.). Also, the “pO2 (mmHg) (increase)” value in series [1] (i.d., 12.5 mg/kg) is listed as 3 (12.5 mg) mmHg; in series [1] (i.v., 5 mg/kg), 2 (5 mg) mmHg. Besides, the “contractility (% initial value)” value in series [2] (i.d., 32 mg/kg) is given as 23 (32 mg) % initial value; in series [2] (i.v., 5 mg/kg), 9 (5 mg) % initial value.
Consider `CCCCn1c(=O)c2c(ncn2CCC(C)=O)n(CCCC)c1=O` [Compound C, 1,3-di-butyl-7-(3-oxobutyl)xanthine, reference compound], for which the “pO2 (mmHg) (increase)” value in series [1] (i.d., 32 mg/kg) is on record as 6 (32 mg) mmHg. In series [2] (i.d., 12.5 mg/kg), the “contractility (% initial value)” value is 22 (12.5 mg) % initial value.

The values are drawn from patent EP0005015B1, “Use of a xanthine derivate in the manufacture of a medicament” (BEECHAM - WUELFING GmbH & Co. KG, priority 1978, dated 1979).
